Measurements reported in patent publication EP4711372A1, “CRYSTAL FORM OF HETEROCYCLIC COMPOUND, SALT THEREOF, CRYSTAL FORM OF SALT THEREOF, AND USE” (Hubei Bio-Pharmaceutical Industrial Technological Institute …, priority 2023, dated 2024).
In brackets after ≈: the same amount, converted by molar mass. Read-outs that look alike come from different tables or passages of the source. Blank lines part the entries; values can stand above or below the compound they belong to.

What was measured:
[1] = Solid-state stability evaluation test (XRPD and HPLC); type: physicochemical
Protocol: (§1) The purity test, dynamic solubility test, and stability test in the assay were performed using an ultra-performance liquid chromatograph (UPLC).
Their physical and chemical stability were evaluated by XRPD and HPLC.

[2] = Hygroscopicity test (DVS); type: physicochemical
Protocol: Dynamic vapor sorption (DVS) curves were collected on DVS Intrinsic Plus from SMS (Surface Measurement Systems). The relative humidity at 25°C was corrected using the deliquescence points of LiCl, Mg(NO3)2, and KCl.

[3] = Dynamic solubility test of crystal forms in H2O, SGF, FaSSIF and FeSSIF; type: physicochemical; conditions: 37°C; for S: concentration of the compound represented by formula I-3B / solubility thermodynamic at 24 h: loading 10 mg/mL; for solubility thermodynamic at 24 h: read-out: S: concentration of the compound represented by formula I-3B; for FC: crystal form conversion: XRPD; for pH: filtrate
Protocol: as §1
After sampling at each time point, the samples were centrifuged (12,000 rpm, 2 minutes) and filtered (0.45 µm PTFE membrane), and the HPLC concentration and pH value of the filtrate were measured. The solid samples after centrifugation were tested for XRPD.

[4] = target: T1, 15-PGDH (Homo sapiens, UniProt P15428); test: 15-PGDH enzyme inhibition assay (fluorescence, NAD+/PGE2); type: biochemical; conditions: 15-PGDH inhibition
T1 construct: purchased R&D Systems 5660-DH-010
T1 sequence (P15428 1-266): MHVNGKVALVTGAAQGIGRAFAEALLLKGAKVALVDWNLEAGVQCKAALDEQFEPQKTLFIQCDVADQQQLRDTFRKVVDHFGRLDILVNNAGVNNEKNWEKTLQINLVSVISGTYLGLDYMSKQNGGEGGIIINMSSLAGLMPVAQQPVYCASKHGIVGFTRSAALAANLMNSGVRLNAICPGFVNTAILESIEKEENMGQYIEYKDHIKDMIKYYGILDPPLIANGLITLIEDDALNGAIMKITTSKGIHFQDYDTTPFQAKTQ
Protocol: 15-PGDH (R&D Systems, Cat. No. 5660-DH-010) was prepared to twice the final concentration, i.e., 30 nM, using Assay Buffer (50 mM Tris-HCl, pH 7.5, 0.01% Tween 20 by volume). 15-PGDH was then added to a 384-well white plate (Cisbio Bioassays, Cat. No. 66PL384025) at 8 µL/well. Negative control wells (with Assay Buffer only and without enzyme) were set. The compound was then prepared to 4 times the final concentration using Assay Buffer, i.e., diluted 3-fold to 10 concentrations starting from 4000 nM. The compound was added to the above white plate at 4 µL/well, mixed well, centrifuged at 1000 rpm for 1 minute, and incubated at 25°C for 10 minutes. Both positive control wells (with 15-PGDH only) and negative control wells (without 15-PGDH) were set. A mixture of NAD^+ (Select, Cat. No. S2518) and PGE2 (R&D Systems, Cat. No.:2296110) was then prepared using Assay Buffer. NAD^+ and PGE2 were prepared to four times their final concentrations, i.e., 2 mM and 0.12 mM, respectively, using Assay Buffer. The mixture was then added to the above white plate at 4 µL/well, mixed well, centrifuged at 1000 rpm for 1 minute, and incubated at 25°C for 30 minutes for the reaction. The fluorescence was measured at an excitation wavelength of 340 nm and an emission wavelength of 485 nm using a TECAN SPARK 20M microplate reader. The IC50 value was calculated using four-parameter fitting with GraphPad Prism 8.0.

[5] = Pharmacokinetics in mice (oral gavage); type: in vivo; conditions: mouse, plasma, male CD-1 mice, 10 mg/kg
Protocol: The pharmacokinetic properties of the compounds obtained in Example 1 in mice were determined with reference to the following experimental methods.
Three male CD-1 mice were administered by oral gavage at a dose of 10 mg/kg, and the vehicle was 5% DMSO + 10% Solutol + 85% Saline. The mice were fasted overnight, and the time points of blood collection were before administration and at 15 minutes, 30 minutes, 1 hour, 2 hours, 4 hours, 8 hours, and 24 hours after administration. Blood samples were centrifuged at 6,800 g for 6 minutes at 2 to 8°C, and plasma was collected and stored at - 80°C. 10 µL of plasma at each time point was taken and added with 200 µL of methanol containing 100 ng/mL internal standard. The mixture was vortexed, mixed well, and centrifuged at 18,000 g for 7 minutes at 2 to 8°C. 200 µL of the mixture was transferred to a 96-well injection plate for LC-MS/MS quantitative analysis. The main pharmacokinetic parameters were analyzed using WinNonlin 7.0 software with non-compartmental model.

- HPLC purity ([1]; peak at RRT 0.52 (impurity), 25°C/60% RH/open/1 week): 0.22 area%
- HPLC purity ([1]; peak at RRT 0.52 (impurity), 40°C/75% RH/open/1 week): 0.22 area%
- HPLC purity ([1]; peak at RRT 0.52 (impurity), 60°C/closed/1 day): 0.22 area%
- HPLC purity ([1]; peak at RRT 0.52 (impurity), Onset): 0.22 area%
- HPLC purity ([1]; peak at RRT 0.97 (impurity), 25°C/60% RH/open/1 week): 0.10 area%
- HPLC purity ([1]; peak at RRT 0.97 (impurity), 40°C/75% RH/open/1 week): 0.09 area%
- HPLC purity ([1]; peak at RRT 0.97 (impurity), 60°C/closed/1 day): 0.10 area%
- HPLC purity ([1]; peak at RRT 0.97 (impurity), Onset): 0.10 area%
- moisture absorption weight gain ([2]; 25°C/80% RH): 1.112%
- change in crystal form after DVS testing (XRPD) ([2]; before and after DVS testing): no change in crystal form
SMILES: Cn1nc2cc(N3C[C@H]4C[C@H]4c4cc(C(=O)N5CCC(F)(F)CC5)cnc43)ccn2c1=O [listing 1 of 2 here]

- S: concentration of the compound represented by formula I-3B ([3]; FaSSIF, 1 hour): 2.6 mg/mL
- S: concentration of the compound represented by formula I-3B ([3]; FaSSIF, 4 hours): 2.5 mg/mL
- solubility thermodynamic at 24 h ([3]; FaSSIF, 24 hours): 2700 µg/mL (≈ 6.13 mM)
- S: concentration of the compound represented by formula I-3B ([3]; FeSSIF, 1 hour): 3.0 mg/mL
- S: concentration of the compound represented by formula I-3B ([3]; FeSSIF, 4 hours): 3.4 mg/mL
- solubility thermodynamic at 24 h ([3]; FeSSIF, 24 hours): 3900 µg/mL (≈ 8.85 mM)
- S: concentration of the compound represented by formula I-3B ([3]; H2O, 1 hour): 3.3 mg/mL
- S: concentration of the compound represented by formula I-3B ([3]; H2O, 4 hours): 2.6 mg/mL
- S: concentration of the compound represented by formula I-3B ([3]; SGF, 1 hour): 5.3 mg/mL
- S: concentration of the compound represented by formula I-3B ([3]; SGF, 4 hours): 5.1 mg/mL
- FC: crystal form conversion ([3]; FaSSIF, 1 hour): No
- FC: crystal form conversion ([3]; FaSSIF, 4 hours): No
- FC: crystal form conversion ([3]; FaSSIF, 24 hours): No
- FC: crystal form conversion ([3]; FeSSIF, 1 hour): No
- FC: crystal form conversion ([3]; FeSSIF, 4 hours): No
- FC: crystal form conversion ([3]; FeSSIF, 24 hours): No
- FC: crystal form conversion ([3]; H2O, 1 hour): No
- FC: crystal form conversion ([3]; H2O, 4 hours): No
- FC: crystal form conversion ([3]; H2O, 24 hours): No
- FC: crystal form conversion ([3]; SGF, 1 hour): No
- FC: crystal form conversion ([3]; SGF, 4 hours): No
- FC: crystal form conversion ([3]; SGF, 24 hours): No
- pH ([3]; FaSSIF, 1 hour): 6.46
- pH ([3]; FaSSIF, 4 hours): 6.60
- pH ([3]; FaSSIF, 24 hours): 6.70
- pH ([3]; FeSSIF, 1 hour): 4.91
- pH ([3]; FeSSIF, 4 hours): 4.96
- pH ([3]; FeSSIF, 24 hours): 4.93
- pH ([3]; H2O, 1 hour): 8.57
- pH ([3]; H2O, 4 hours): 8.59
- pH ([3]; H2O, 24 hours): 8.95
- pH ([3]; SGF, 1 hour): 1.82
- pH ([3]; SGF, 4 hours): 1.94
- pH ([3]; SGF, 24 hours): 2.11
- solubility thermodynamic at 24 h ([3]; simulated gastric fluid, SGF, 24 hours): 4700 µg/mL (≈ 10.7 mM)
- solubility thermodynamic at 24 h ([3]; water, H2O, 24 hours): 900 µg/mL (≈ 2.04 mM)
SMILES: Cn1nc2cc(N3C[C@H]4C[C@H]4c4cc(C(=O)N5CCC(F)(F)CC5)cnc43)ccn2c1=O [listing 2 of 2 here]

- IC50 [4]: 4.2 nM
- AUC(0-t) [5]: 35500 ng·h/mL
- Cmax [5]: 3710 ng/mL
SMILES: Cn1nc2cc(N3CC4CC4c4cc(C(=O)N5CCC(F)(F)CC5)cnc43)ccn2c1=O (centres unmarked) [compound I-3, 7-(6-(4,4-difluoropiperidine-1-carbonyl)-1,1a,2,7b-tetrahydro-3H-cyclopropa[c][1,8]naphthyridin-3-yl)-2-methyl-[1,2,4]triazolo[4,3-a]pyridin-3(2H)-one]

- IC50 [4]: 12.2 nM
SMILES: Cn1nc2cc(N3CC4CC4c4cc(C(=O)N5CCC(F)(F)CC5)cnc43)ccn2c1=O (centres unmarked) [compound I-3A]
